The nature of data set [1]: Water solubility of crystal forms. The data set is classed as physicochemical.
Data set [2] is described as follows: Storage stability of the crystal forms (humidity, temperature, dry nitrogen). The data set is classed as physicochemical. The note with it: for conversion to hydrated or other crystalline forms on storage / stability under humid atmosphere / high relative humidity: stored at high, such as 75% or 90%, relative humidity in air at elevated temperature.
In data set [3] the test system is psychosis and other neuropsychiatric disorders. Particulars: in vivo; cited from earlier work.
Data set [4] relates to Alzheimer's Disease patients. The note with it: cited from earlier work.
In data set [5] the test system is schizophrenics. Particulars: cited from earlier work.
A short description of data set [6]: Solubility in solvents. The class given is physicochemical.

`Clc1ccc2c(c1)N=C(N1CCNCC1)c1ccccc1N2` [Form A, 8-chloro-11-(1-piperazinyl)-5H-dibenzo[b,e]-[1,4]diazepin]: the water solubility entry in data set [1] is recorded as “better water solubility than crystal form B”. Further, the “physical and chemical stability” value in data set [2] (form obtained at ambient temperatures) was “excellent physical and chemical stability properties”. Further, in data set [2], the “conversion to hydrated or other crystalline forms on storage” value is reported as “does not convert to the hydrated forms or other crystalline forms” and the “stability under humid atmosphere / high relative humidity” value is reported as “very stable under humid atmosphere”.
Turning to `Clc1ccc2c(c1)N=C(N1CCNCC1)c1ccccc1N2` [NDMC, 8-chloro-11-(1-piperazinyl)-5H-dibenzo[b,e]-[1,4]diazepin], in data set [3], the “effectiveness in the treatment of psychosis and other neuropsychiatric disorders” value is “effective in the treatment of psychosis and other neuropsychiatric disorders”.
In the case of `Clc1ccc2c(c1)N=C(N1CCNCC1)c1ccccc1N2` [Form B, 8-chloro-11-(1-piperazinyl)-5H-dibenzo[b,e]-[1,4]diazepin], the water solubility entry in data set [1] is “specially water soluble”. For the same compound, the “stability at elevated temperatures or under dry nitrogen” value in data set [2] (elevated temperatures or dry nitrogen, loses its water and is transformed into Form D) was “unstable”. Moreover, the “stability under normal conditions” value in data set [2] (normal conditions, ambient temperatures) was “very stable”. For the same compound, in data set [2], the “conversion to hydrated or other crystalline forms on storage” value is recorded as “No conversion to other crystalline forms or hydrates was observed” and the “stability under humid atmosphere / high relative humidity” value is reported as “very stable hydrate”.
Consider `Clc1ccc2c(c1)N=C(N1CCNCC1)c1ccccc1N2` [8-chloro-11-(1-piperazinyl)-5H-dibenzo[b,e]-[1,4]diazepin], for which the “stability of mixtures of crystal forms A and B” value in data set [2] is “very stable”.
Take `CCCCCCOc1nsnc1C1=CCCN(C)C1` [Xanomeline]: the “efficacy in controlling psychosis and related behavioral disturbances” value in data set [4] was “efficacy in controlling psychosis and related behavioral disturbances”. Moreover, in data set [5] (initial clinical studies in schizophrenics), the adverse motoric effects entry is “did not induce adverse motoric effects”. Moreover, the “efficacy in treating schizophrenia” value in data set [5] (schizophrenia) is “efficacious in treating schizophrenia”. Further, the “efficacy against positive and negative symptoms” value in data set [5] (schizophrenics) is “efficacy against both positive and negative symptoms”.
Take `Clc1ccc2c(c1)N=C(N1CCNCC1)c1ccccc1N2` [Form D, 8-chloro-11-(1-piperazinyl)-5H-dibenzo[b,e]-[1,4]diazepin]: the solubility in solvents result in data set [6] is recorded as “satisfying solubility in solvents”. Also, in data set [2] (contacted with humidity), the “time to formation of Form B on contact with humidity” value is “within hours”. Further, the “stability under exclusion of humidity” value in data set [2] (exclusion of humidity, ambient temperature) was “stable”.

The values above are taken from patent publication US20060205714A1, “Method of synthesis and isolation of solid N-desmethylclozapine and crystalline forms thereof” (priority 2004, published 2006).
